For assay [1], the target named is T1, KRAS G12D (Homo sapiens, UniProt P01116, G12D). The experiment in a line: KRAS_G12D GDP-GTP exchange assay (bodipy-GDP/GppNHp, SOS1). The class given is biochemical. The note with it: bodipy-loaded KRAS G12D 2.5 nM, 4 hours pre-incubation, 2 hours exchange. On the procedure:
(§1) The inhibitor potency of the exemplified compounds was determined in a fluorescence based guanine nucleotide exchange assay, which measures the exchange of bodipy-GDP (fluorescently labeled GDP) for GppNHp (Non-hydrolyzable GTP analog) to generate the active state of KRAS in the presence of SOS1 (guanine nucleotide exchange factor). Inhibitors were serially diluted in DMSO and a volume of 0.1 μL was transferred to the wells of a black low volume 384-well plate. 5 μL/well volume of bodipy-loaded KRAS G12D diluted to 2.5 nM in assay buffer (25 mM Hepes pH 7.5, 50 mM NaCl, 10 mM MgCl2 and 0.01% Brij-35) was added to the plate and pre-incubated with inhibitor for 4 hours at ambient temperature. Appropriate controls (enzyme with no inhibitor or with a G12D inhibitor) were included on the plate. The exchange was initiated by the addition of a 5 μL/well volume containing 1 mM GppNHp and 300 nM SOS1 in assay buffer. The 10 μL/well reaction concentration of the bodipy-loaded KRAS G12D, GppNHp, and SOS1 were 2.5 nM, 500 uM, and 150 nM, respectively. The reaction plates were incubated at ambient temperature for 2 hours, a time estimated for complete GDP-GTP exchange in the absence of inhibitor. For the KRAS G12V mutant, similar guanine nucleotide exchange assays were used with 2.5 nM as final concentration for the bodipy loaded KRAS proteins and 3 hours incubation after adding GppNHp-SOS1 mixture. A cyclic peptide described to selectively bind G12D mutant (Sakamoto et al., BBRC 484.3 (2017), 605-611) or internal compounds with confirmed binding were used as positive controls in the assay plates. Fluorescence intensities were measured on a PheraStar plate reader instrument (BMG Labtech) with excitation at 485 nm and emission at 520 nm.
(§2) Either GraphPad prism or XLfit was used to analyze the data. The IC50 values were derived by fitting the data to a four parameter logistic equation producing a sigmoidal dose-response curve with a variable Hill coefficient. Prism equation: Y=Bottom+(Top−Bottom)/(1+10^((Log IC50−X)*Hill slope)); XLfit equation: Y=(A+((B−A)/(1+((X/C)^D)))) where X is the logarithm of inhibitor concentration and Y is the response.

Assay [2] has as its target T2, KRAS G12V (Homo sapiens, UniProt P01116, G12V). The assay is described as follows: KRAS_G12V GDP-GTP exchange assay (bodipy-GDP/GppNHp, SOS1). The class given is biochemical. The note with it: bodipy loaded KRAS G12V 2.5 nM, 3 hours incubation after GppNHp-SOS1; read-out: G12V_exchange (KRAS_G12V exchange assay IC50). On the procedure: as §1, §2
Assay [3] concerns the target T2, KRAS G12V. The experiment in a line: KRAS_G12V pERK assay. Format: cell-based. The note with it: read-out: G12V_pERK (KRAS_G12V pERK assay IC50).
The target of assay [4] is T1, KRAS G12D. The experiment in a line: KRAS_G12D cellular pERK HTRF assay. Format: cell-based. Details: CRL-1997; host or cells: A427 or HPAF-II. The note with it: KRAS G12D cells (A427, HPAF-II), 2 hours; for IC50: read-out: G12D_pERK (KRAS_G12D pERK assay IC50). On the procedure: MIA PaCa-2 (KRAS G12C; ATCC® CRL-1420), A427 (KRAS G12D; ATCC® HTB53), HPAF-II (KRAS G12D; ATCC® CRL-1997) and NCI-H838 (KRAS WT; ATCC® CRL-5844) cells are purchased from ATCC and maintained in RPMI 1640 media supplemented with 10% FBS (Gibco/Life Technologies). The cells are plated at 5000 cells per well (8 uL) into Greiner 384-well low volume, flat-bottom, tissue culture treated white plates and incubated overnight at 37° C., 5% CO2. The next morning, test compound stock solutions are diluted in media at 3x the final concentration, and 4 uL are added to the cells. The plate is mixed by gentle rotation for 30 seconds (250 rpm) at room temperature. The cells are incubated with the KRAS G12C and G12D compounds for 4 hours or 2 hours respectively at 37° C., 5% CO2.
4 uL of 4x lysis buffer with blocking reagent (1:25) (Cisbio) are added to each well and plates are rotated gently (300 rpm) for 30 minutes at room temperature. 4 uL per well of Cisbio anti Phospho-ERK 1/2 d2 is mixed with anti Phospho-ERK 1/2 Cryptate (1:1) are added to each well, mixed by rotation and incubated overnight in the dark at room temperature. Plates are read on the Pherastar plate reader at 665 nm and 620 nm wavelengths. IC50 determination is performed by fitting the curve of inhibitor percent inhibition versus the log of the inhibitor concentration using the GraphPad Prism 7 software.
For orientation: Time-resolved FRET reads energy transfer from a long-lived donor to a nearby acceptor.

The term IC50 denotes the concentration that inhibits the measured activity by half.

T2 sequence (P01116 1-188 isoform P01116-2 G12V): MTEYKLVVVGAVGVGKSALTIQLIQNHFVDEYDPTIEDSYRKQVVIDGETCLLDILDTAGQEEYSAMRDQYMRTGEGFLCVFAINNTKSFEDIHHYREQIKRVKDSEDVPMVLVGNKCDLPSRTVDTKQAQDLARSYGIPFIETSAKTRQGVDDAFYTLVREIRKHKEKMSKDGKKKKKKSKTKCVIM
T1 sequence (P01116 1-188 isoform P01116-2 G12D): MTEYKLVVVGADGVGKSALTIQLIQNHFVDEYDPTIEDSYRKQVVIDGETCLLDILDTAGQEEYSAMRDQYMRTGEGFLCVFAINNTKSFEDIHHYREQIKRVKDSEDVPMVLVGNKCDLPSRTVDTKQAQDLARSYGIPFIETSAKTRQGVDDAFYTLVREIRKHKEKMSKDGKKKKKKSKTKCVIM

As for `COC(=O)CCc1cc2c(O[C@@H](C)[C@@H]3CCCN3C)nc3c(F)c(-c4cc(O)cc5ccccc45)ncc3c2n1C1C2CNC1C2` (single isomer, unassigned) [Example 1b], the “G12D_exchange (KRAS_G12D exchange assay IC50)” value (shortened to “G12D_exchange”) on KRAS G12D [1] is recorded as “†”. Moreover, the figures for the IC50 on KRAS G12V [2] and at KRAS G12V [3] were at most 100 nM and 100 to 1000 nM, respectively.

Consider `COC(=O)CCc1nc2c(N3CC(N(C)C)C3)nc3c(F)c(-c4cc(O)cc5ccccc45)ncc3c2n1[C@@H]1[C@@H]2CN[C@H]1C2` (relative stereo) [Example 11, methyl 3-(1-((endo)-2-azabicyclo[2.1.1]hexan-5-yl)-4-(3-(dimethylamino)azetidin-1-yl)-6-fluoro-7-(3-hydroxynaphthalen-1-yl)-1H-imidazo[4,5-c][1,6]naphthyridin-2-yl)propanoate], for which, at KRAS G12D [1], the “G12D_exchange” value is on record as “†”. Further, the IC50 at KRAS G12V [2] lay within 100 to 1000 nM; at KRAS G12D [4], 1000 to 5000 nM.

On to `COC(=O)CCc1cc2c(OC[C@@]34CCCN3C[C@H](F)C4)nc3c(F)c(-c4cc(O)cc5ccccc45)ncc3c2n1C1C2CNC1C2` (single isomer, unassigned) [Example 2b], for which the “G12D_exchange” value on KRAS G12D [1] is “†”. For the same compound, the IC50 at KRAS G12V [2] is at most 100 nM; at KRAS G12V [3] it was 5000 to 10000 nM; at KRAS G12D [4] it was 100 to 1000 nM.

With `CN(C)C(=O)CCc1nc2c(N3CC(N(C)C)C3)nc3cc(-c4cc(O)cc5ccccc45)c(CCC#N)nc3c2n1C1C2CNC1C2` (single isomer, unassigned) [Example 17b, 3-(1-((endo)-2-azabicyclo[2.1.1]hexan-5-yl)-8-(2-cyanoethyl)-4-(3-(dimethylamino)azetidin-1-yl)-7-(3-hydroxynaphthalen-1-yl)-1H-imidazo[4,5-c][1,5]naphthyridin-2-yl)-N,N-dimethylpropanamide], the “G12D_exchange” value on KRAS G12D [1] is on record as “†”. The IC50 at KRAS G12V [2] is 1000 to 5000 nM; on KRAS G12D [4], 5000 to 10000 nM.

Consider `C[C@H](Oc1nc2c(F)c(-c3cccc4c3OCCC4)ncc2c2c1cc(-c1cn(C)nc1C(=O)N(C)C)n2[C@H]1[C@H]2CN[C@@H]1C2)[C@@H]1CCCN1C` [Example 27, 4-(1-((1R,4R,5S)-2-azabicyclo[2.1.1]hexan-5-yl)-7-(chroman-8-yl)-6-fluoro-4-((S)-1-((S)-1-methylpyrrolidin-2-yl)ethoxy)-1H-pyrrolo[3,2-c][1,6]naphthyridin-2-yl)-N,N,1-trimethyl-1H-pyrazole-3-carboxamide], for which the “G12D_exchange” value at KRAS G12D [1] is “†”. Also, the IC50 at KRAS G12V [2] was at most 100 nM; at KRAS G12V [3], 1000 to 5000 nM; on KRAS G12D [4], 1000 to 5000 nM.

For the compound `C[C@H](Oc1nc2c(F)c(-c3cccc4c3OCCC4)ncc2c2c1cc(C1CC[C@H]3COC(=O)N13)n2[C@H]1[C@H]2CN[C@@H]1C2)[C@@H]1CCCN1C` (single isomer, unassigned) [Example 26a], on KRAS G12D [1], the “G12D_exchange” value is listed as “†”. Moreover, the IC50 on KRAS G12V [2] was at most 100 nM; on KRAS G12V [3] it was 1000 to 5000 nM. In addition, the “G12D_pERK (KRAS_G12D pERK assay IC50)” value on KRAS G12D [4] is on record as “†”.

Regarding `C[C@H](Oc1nc2c(F)c(-c3cccc4c3OCCC4)ncc2c2c1cc(C1CC[C@H]3COC(=O)N13)n2[C@H]1[C@H]2CN[C@@H]1C2)[C@@H]1CCCN1C` (single isomer, unassigned) [Example 26b], the IC50 was 100 to 1000 nM at KRAS G12D [1] (read-out: G12D_exchange (KRAS_G12D exchange assay IC50)), 100 to 1000 nM on KRAS G12V [2] and 1000 to 5000 nM at KRAS G12D [4].

Regarding `COC(=O)N1CCC[C@@H]1c1cc2c(O[C@@H](C)CN3CCCC3)nc3c(F)c(-c4cccc5scnc45)ncc3c2n1[C@H]1[C@H]2CN[C@@H]1C2` [Example 25, methyl (R)-2-(7-(benzo[d]thiazol-4-yl)-1-((1R,4R,5S)-2-azabicyclo[2.1.1]hexan-5-yl)-6-fluoro-4-(((S)-1-(pyrrolidin-1-yl)propan-2-yl)oxy)-1H-pyrrolo[3,2-c][1,6]naphthyridin-2-yl)pyrrolidine-1-carboxylate], the “G12D_exchange” value at KRAS G12D [1] is listed as “†”. The results for the IC50 at KRAS G12V [2] and at KRAS G12V [3] were 100 to 1000 nM and 1000 to 5000 nM, respectively. For the same compound, the “G12D_pERK (KRAS_G12D pERK assay IC50)” value on KRAS G12D [4] is listed as “†”.

With `Cc1cc2c(O[C@@H](C)[C@@H]3CCCN3C)nc3c(F)c(-c4cc(O)cc5ccccc45)ncc3c2n1C1C2CNC1C2` (single isomer, unassigned) [Example 3b], the “G12D_exchange” value on KRAS G12D [1] is reported as “†”. Besides, the values for the IC50 on KRAS G12V [2], at KRAS G12V [3] and at KRAS G12D [4] were 100 to 1000 nM, 5000 to 10000 nM and 100 to 1000 nM, respectively.

In the case of `Cc1cc2c(O[C@@H](C)[C@@H]3CCCN3C)nc3c(F)c(-c4cc(O)cc5ccccc45)ncc3c2n1C1C2CNC1C2` (single isomer, unassigned) [Example 3a], the “G12D_exchange” value at KRAS G12D [1] is on record as “†”. Also, the IC50 at KRAS G12V [2] is at most 100 nM; at KRAS G12V [3], 100 to 1000 nM. Moreover, on KRAS G12D [4], the “G12D_pERK (KRAS_G12D pERK assay IC50)” value is listed as “†”.

As to `COC(=O)CCc1cc2c(O[C@@H](C)[C@@H]3CCCN3C)nc3c(F)c(-c4cc(O)cc5ccccc45)ncc3c2n1C1C2CNC1C2` (single isomer, unassigned) [Example 1a], the “G12D_exchange” value at KRAS G12D [1] is on record as “†”. Moreover, the half-maximal inhibitory concentration (IC50) was at most 100 nM at KRAS G12V [2] and 1000 to 5000 nM on KRAS G12V [3]. The “G12D_pERK (KRAS_G12D pERK assay IC50)” value at KRAS G12D [4] is on record as “†”.

Regarding `COC(=O)CCc1cc2c(OC[C@@]34CCCN3C[C@H](F)C4)nc3c(F)c(-c4cc(O)cc5ccccc45)ncc3c2n1C1C2CNC1C2` (single isomer, unassigned) [Example 2a], on KRAS G12D [1], the “G12D_exchange” value is listed as “†”. The half-maximal inhibitory concentration (IC50) at KRAS G12V [2] was in the range of 100 to 1000 nM; on KRAS G12D [4] it was 1000 to 5000 nM.

On to `C[C@H](Oc1nc2c(F)c(-c3cc(O)cc4ccccc34)ncc2c2c1nc(CCC(=O)N(C)C)n2C1C2CNC1C2)[C@@H]1CCCN1C` (single isomer, unassigned) [Example 9a], for which the “G12D_exchange” value on KRAS G12D [1] is given as “†”. For the same compound, the IC50 on KRAS G12V [2] was at most 100 nM; at KRAS G12D [4], 1000 to 5000 nM.

Regarding `C[C@H](Oc1nc2c(F)c(N3CCCc4ccccc43)ncc2c2c1cc(CN1CCOC1=O)n2C1C2CNC1C2)[C@@H]1CCCN1C` (single isomer, unassigned) [Example 7a], the “G12D_exchange” value at KRAS G12D [1] is on record as “†”. The figures for the IC50 on KRAS G12V [2] and at KRAS G12D [4] were 100 to 1000 nM and 1000 to 5000 nM, respectively.

`Cc1cc2c(OCC34CCCN3CCC4)nc3c(F)c(-c4cc(O)cc5ccccc45)ncc3c2n1[C@@H]1[C@@H]2CN[C@H]1C2` (relative stereo) [Example 4, 4-(1-((endo)-2-azabicyclo[2.1.1]hexan-5-yl)-6-fluoro-2-methyl-4-((tetrahydro-1H-pyrrolizin-7a(5H)-yl)methoxy)-1H-pyrrolo[3,2-c][1,6]naphthyridin-7-yl)naphthalen-2-ol]: the “G12D_exchange” value on KRAS G12D [1] is listed as “†”. In addition, the IC50 at KRAS G12V [2] is at most 100 nM; at KRAS G12V [3] it was 1000 to 5000 nM; at KRAS G12D [4] it was 100 to 1000 nM.

(Values after US12441742B2, “Naphthyridine compounds as inhibitors of KRAS” (Incyte Corporation, priority 2021, dated 2025).)
